Assay results from article PMC6478823, “A suite of phenotypic assays to ensure pipeline diversity when prioritizing drug-like Cryptosporidium growth inhibitors” (Nature Communications, 2019).
Several values for one entry are separate records, joined by “and”; a condition that tells them apart may be missing. Identical values can stand only once. Like-named read-outs stand apart in the source and are kept apart here.

Key:
C. parvum [1] = experiment: Egress, motility, reinvasion assay (PV ratio); conditions: compound at EC90; for Egress and Reinvasion Assay: Mean PV ratios (19.5h:6h), Average: average of replicates; for Egress and Reinvasion Assay: Mean PV ratios (19.5h:6h), Replicate 1a: single replicate 1; for Egress and Reinvasion Assay: Mean PV ratios (19.5h:6h), Replicate 2a: single replicate 2; for Egress and Reinvasion Assay: Mean PV ratios (19.5h:6h), Replicate 3a: single replicate 3; for Egress and Reinvasion Assay: Mean PV ratios (19.5h:6h), Replicate 4a: single replicate 4
Experimental: For quantification of parasitophorous vacuoles over time, HCT-8 cells were grown to greater than 90% confluence in 384-well plates and infected with 11,000 oocysts after triggering excystation.

C. parvum [2] = experiment: 48 h Cryptosporidium growth inhibition assay; assay type: cell-based, Cryptosporidium parvum; conditions: for EC90: compound added 3 h post-infection, read at 48 h; for 0 - 48 h V. villosa lectin (asexual): Mean % Inhibition (parasites): replicates 1-3 in separate columns
In short: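 EC50 and EC90 came from automated fluorescence imaging counts of parasitophorous vacuoles (Vicia villosa lectin stain), with Hoechst-stained host nuclei tracked alongside. The compound was present from 3 h to 48 h after infecting confluent HCT-8 cells with 5500 excysted C. parvum (Iowa) oocysts per well, at 37 °C.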

C. parvum [3] = experiment: DNA replication assay (EdU incorporation); assay type: cell-based, Cryptosporidium parvum; conditions: compound at EC90; for DNA Synthesis Assay: Mean % Inhibition of EdU-labeling (normalized to parasite numbers), Average: average of replicates; for DNA Synthesis Assay: Mean % Inhibition of EdU-labeling (normalized to parasite numbers), Replicate 1: single replicate 1; for DNA Synthesis Assay: Mean % Inhibition of EdU-labeling (normalized to parasite numbers), Replicate 2: single replicate 2; for DNA Synthesis Assay: Mean % Inhibition of EdU-labeling (normalized to parasite numbers), Replicate 3: single replicate 3; for DNA Synthesis Assay: Mean % Inhibition of EdU-labeling (normalized to parasite numbers), Replicate 4: single replicate 4; for DNA synthesis: yes/no grouping by phenotypic assay result
[4] = read-out: Regular 3 to 48 h assay in vitro EC90, C. parvum in HCT-8 cells

Structure (SMILES)	Egress and Reinvasion Assay: Mean PV ratios (19.5h:6h), Average (C. parvum [1])	Egress and Reinvasion Assay: Mean PV ratios (19.5h:6h), Replicate 1a (C. parvum [1])	Egress and Reinvasion Assay: Mean PV ratios (19.5h:6h), Replicate 2a (C. parvum [1])	Egress and Reinvasion Assay: Mean PV ratios (19.5h:6h), Replicate 3a (C. parvum [1])	Egress and Reinvasion Assay: Mean PV ratios (19.5h:6h), Replicate 4a (C. parvum [1])	DNA Synthesis Assay: Mean % Inhibition of EdU-labeling (normalized to parasite numbers), Average (C. parvum [3])	DNA Synthesis Assay: Mean % Inhibition of EdU-labeling (normalized to parasite numbers), Replicate 1 (C. parvum [3])	DNA Synthesis Assay: Mean % Inhibition of EdU-labeling (normalized to parasite numbers), Replicate 2 (C. parvum [3])	EC90 (C. parvum [2]; [4])	DNA Synthesis Assay: Mean % Inhibition of EdU-labeling (normalized to parasite numbers), Replicate 3 (C. parvum [3])	DNA Synthesis Assay: Mean % Inhibition of EdU-labeling (normalized to parasite numbers), Replicate 4 (C. parvum [3])	also measured
CC(=O)O[C@@]12CO[C@@H]1C[C@H](O)[C@@]1(C)C(=O)[C@H](O)C3=C(C)[C@@H](OC(=O)[C@H](O)[C@@H](NC(=O)OC(C)(C)C)c4ccccc4)C[C@@](O)([C@@H](OC(=O)c4ccccc4)[C@H]21)C3(C)C [Docetaxel]	1.76	1.96	2.25	1.23	1.60	16.66%	33.42%	-0.10%	–	–	–	EC90 (C. parvum [2]; Cryptosporidium parvum, HCT-8, read-out: Regular 3 to 48 h assay in vitro EC90, C. parvum in HCT-8 cells): 1 µM
CCOc1ccc2cc(-c3nn(CC4CCN(C)CC4)c4ncnc(N)c34)ccc2n1 [BKI-1369]	1.41	1.20	1.62	–	–	16.97%	25.00%	8.94%	17.7 µM	–	–	–
O=C(Nc1ccc(Cl)c(Cl)c1)N1CCN(c2ccc3nncn3n2)CC1 [D-28]	1.28	1.01	1.19	1.91	1.01	3.38%	14.86%	-8.10%	1.5 µM	–	–	–
O=C(Nc1nc(-c2ccccn2)cs1)c1ccccc1Br [MMV665909]	0.41	0.61	0.21	–	–	90.80%	100.00%	100.00%	6.84 µM	80.23%	80.99%	DNA Synthesis Assay: Mean % Inhibition of EdU-labeling (normalized to parasite numbers), Replicate 5 (C. parvum [3]; single replicate 5): 92.80%
COc1ccc(NC(=O)N2CCCCN3C(CN(C)C)C(c4ccc(C#Cc5ccccc5)cc4)C3C2)cc1 (stereo not drawn) [BRD7929]	0.72	0.46	0.99	0.98	0.41	93.39%	85.08%	95.72%	0.15 µM	99.38%	–	Egress and Reinvasion Assay: Mean PV ratios (19.5h:6h), Replicate 5a (C. parvum [1]; single replicate 5): 0.78
O=C(NC(c1ccccc1)c1ccc2cccnc2c1O)c1ccccc1 (stereo not drawn) [A-5]	0.32	0.55	0.10	–	–	99.95%	100.00%	100.00%	4.35 µM	99.80%	100.00%	DNA synthesis (C. parvum [3]): yes
COc1ccc(Nc2nc(NCc3ccccc3Cl)c3ccccc3n2)cc1Cl [B-13]	1.42	1.37	1.48	–	–	-3.46%	5.94%	-6.60%	1.39 µM	-9.73%	–	DNA synthesis (C. parvum [3]): no
O=C(Nc1ccc(Cl)cc1)N1CCN(c2ccc3nncn3n2)CC1 [D-1]	1.86	1.12	1.70	3.12	1.50	23.98%	20.68%	7.95%	5.1 µM	36.52%	30.78%	0 - 48 h V. villosa lectin (asexual): Mean % Inhibition (parasites) (C. parvum [2]; D-1 at log conc (µM) 0.00): -13.99% and -26.93% and 12.39%; 0 - 48 h V. villosa lectin (asexual): Mean % Inhibition (parasites) (C. parvum [2]; D-1 at log conc (µM) 0.30): 44.90% and 34.43% and 28.35%; 0 - 48 h V. villosa lectin (asexual): Mean % Inhibition (parasites) (C. parvum [2]; D-1 at log conc (µM) 0.48): 62.14% and 71.97% and 62.62%; 0 - 48 h V. villosa lectin (asexual): Mean % Inhibition (parasites) (C. parvum [2]; D-1 at log conc (µM) 0.60): 81.17% and 79.33% and 75.56%; 0 - 48 h V. villosa lectin (asexual): Mean % Inhibition (parasites) (C. parvum [2]; D-1 at log conc (µM) 0.85): 91.46% and 90.48% and 90.58%; 0 - 48 h V. villosa lectin (asexual): Mean % Inhibition (parasites) (C. parvum [2]; D-1 at log conc (µM) 1.08): 93.34% and 92.97% and 93.35%; 0 - 48 h V. villosa lectin (asexual): Mean % Inhibition (parasites) (C. parvum [2]; D-1 at log conc (µM) 1.40): 93.98% and 94.31% and 94.76%; 0 - 48 h V. villosa lectin (asexual): Mean % Inhibition (parasites) (C. parvum [2]; D-1 at log conc (µM) -0.70): -20.95% and -21.90% and -17.53%; 0 - 48 h V. villosa lectin (asexual): Mean % Inhibition (parasites) (C. parvum [2]; D-1 at log conc (µM) -1.40): -23.49% and -23.30% and -25.37%; EC50 (C. parvum [2]; read-out: 0 − 48 h V. villosa lectin (asexual): EC50, asexual growth assay, first 48 h, range in brackets): 2.1 µM
CCOc1ccc(Cl)c2c1B(O)OC2CN (stereo not drawn) [AN6426]	0.93	1.07	1.05	0.86	0.75	86.81%	80.80%	89.13%	19.5 µM	90.50%	–	–
CC(=NOCCN)c1cccc(C(C)(C)NC(=O)Nc2ccc(Cl)c(C(F)(F)F)c2)c1 [P257]	0.84	1.06	0.97	0.68	0.65	97.76%	97.49%	98.03%	34.3 µM	–	–	–
